From US20240216359A1, “TREATMENT OF NEUROLOGICAL DISORDERS” (GMP BIOTECHNOLOGY LIMITED, priority 2021, published 2024)
Structures can show the parent of a compound that is named as a salt. Where two headings read alike, the source gives them in different places.

Assays:
[1] = cited from earlier work
[2] = adverse event rate, comparator; cited from earlier work
[3] = 25° C.; cited from earlier work
[4] = Pilot double-blind crossover study in subjects with erectile dysfunction principally of psychogenic origin; format: in vivo, human
Excerpt: The primary efficacy parameter was each subject's assessment of the quality of the erection (graded on a 4-point scale). Secondary endpoints included frequency of erection, time from dosing to erection, duration of erection, and efficacy index (EI) for subjects achieving erections. Safety was primarily assessed via adverse events but cardiovascular effects were also investigated by monitoring blood pressure, heart rates, and percent oxygen saturation, prior to and following dosing. The integrity of the nasal mucosa of both nostrils was also evaluated prior to dosing, in the event of nasal symptoms, and at the end of each treatment visit.
Subjects made a total of six visits to the site, an initial screening and qualification visit, three treatment visits in Part 1, and two treatment visits in Part 2. Eligible subjects were randomized to a treatment sequence for Part I after the initial screening visit. Approximately 2 months later, subjects were randomized to a treatment sequence for Part 2.
At each treatment visit, a single dose of study treatment was administered. Efficacy was measured by means of ED questionnaires, which were completed by each subject. Following dosing, all subjects viewed sexually explicit videotapes and magazines for approximately 60 minutes. At the end of this period, the questionnaires were completed and patients were asked to rate the quality of the erection using a 4-point scale. The primary efficacy variable was the subject's global rating of erection, measured on a scale of 1 to 4: 1=increase in size but not hard; 2=hard, but not hard enough for vaginal penetration; 3=hard enough for vaginal penetration (but not completely hard); 4=completely hard.
Safety was measured by monitoring the subjects' blood pressure, heart rate and percent oxygen saturation (by pulse oximetry) before and after dosing (approximately 90 minutes after dosing commenced). In addition, the integrity of the subject's nasal mucosa was assessed prior to, and at the end of treatment. Information on adverse events was collected throughout the period of the study.
Drugs, Doses, and Regimens: At each treatment visit, subjects received one dose of study treatment.

For `CN1CCc2cccc3c2[C@H]1Cc1ccc(O)c(O)c1-3` [Apomorphine Hydrochloride], the “volume of water in which one gram dissolves” value ([1]; water at 80° C.) is listed as “about 20 ml” and the “volume of water in which one gram dissolves” value ([1]; water) is listed as 50 mL.

For `CN1CC(=O)N2[C@H](c3ccc4c(c3)OCO4)c3[nH]c4ccccc4c3C[C@@H]2C1=O` [Cialis], the Dizziness [2] is listed as 6.2%, the Dyspepsia [2] is listed as 7.7% and the Flushing [2] is listed as 4.2%. The Headache [2] was 13.9%.

For `O=C(O)CC(O)(CC(=O)O)C(=O)O` [Citric Acid], the pKa1 [3] is given as 3.128, the pKa2 [3] is given as 4.761 and the pKa3 [3] is given as 6.396.

In the case of `CCCc1nn(C)c2c(=O)[nH]c(-c3cc(S(=O)(=O)N4CCN(C)CC4)ccc3OCC)nc12` [Viagra], the “difference in effectiveness in initiating erections between treatments and placebo” value ([4]; apomorphine HCl 0.25, 0.50, 1.0 mg, Viagra 50 mg) is reported as “no statistically significant difference”, the serious adverse events ([4]; human, in vivo) is reported as “no serious adverse events” and the “subjects who achieved a satisfactory erection (as reported by the subject)” value ([4]; single dose) is reported as “around 30%”. The “efficacy by Global Self Assessment Scores (grade 3 or 4)” value ([4]; single dose, apomorphine 0.25-1.0 mg intranasal, Viagra 50 mg) was 67%.
